According to patent publication US12527782B2, “Use of hexokinase 2/mitochondria-detaching compounds for treating hexokinase-2 (HK2)-expressing cancers” (Vidac Pharma Ltd., priority 2016, dated 2026):
“Also recorded” adds a separate entry of the source.

Key:
Breast MAXF 857 = experiment: CFA, MAXF 857; type: cell-based, human; details: PDX/CFA
Procedure: (§1) CFA was performed by Charles River Laboratories (Freiburg, Germany) in 96-well plate format according to a modified two-layer soft agar assay. The origin of the tumor xenografts has been described (Fiebig et al. 1989, incorporated herein by reference). The list of tumors used in this study is detailed in Table 1.

[1] = system: Lymphoma (Non-Hodgkin) LYXFNH RAJI; experiment: CFA, LYXFNH RAJI; type: cell-based, human; details: Cell line/CFA
Procedure: as §1

Lung (SCLC) LXFS 573 = experiment: CFA, LXFS 573; type: cell-based, human; details: PDX/CFA
Procedure: as §1

Skin SCC VXF A-431 = experiment: CFA, VXF A-431; type: cell-based, human; details: Cell line/CFA
Procedure: as §1

[2] = system: Lung (NSCLC, adeno) LXFA 629; experiment: CFA, LXFA 629; type: cell-based, human; details: PDX/CFA
Procedure: as §1

[3] = system: Lymphoma (Non-Hodgkin) LYXFNH HUT-78; experiment: CFA, LYXFNH HUT-78; type: cell-based, human; details: Cell line/CFA
Procedure: as §1
The cell lines tested were from a large collection of patient-derived (PDX) and cell line-derived (CDX) human tumor xenografts growing subcutaneously in immunodeficient nude mice (Oncotest GmbH, a Charles River Division). The majority of the xenografts have been directly transplanted from patients and passaged in nude mice. The xenografts retain most of the characteristics of the parental patient tumors including histology and sensitivity to anti-cancer drugs, and efficacy tests in tumor-bearing nude mice largely replicate the response of the donor patient to standard anti-cancer drugs. The cell lines were from publicly available cell lines, including cell lines derived from solid tumors and hematological malignancies. […]
The clonogenic assay was carried out in a 96 well plate format using ultra low attachment plates. […] Cultures were incubated at 37° C. and 7.5% CO2 in a humidified atmosphere for 8 to 14 days and monitored closely for colony growth using an inverted microscope. […]

[4] = system: Leukemia (ALL) LEXFAL CCRF-CEM; experiment: CFA, LEXFAL CCRF-CEM; type: cell-based, human; details: Cell line/CFA
Procedure: as §1

Colon CXF HCT 116 = experiment: CFA, CXF HCT 116; type: cell-based, human; details: PDX/CFA
Procedure: as §1

[5] = Skin irritation in naïve SKH-1 mice; type: in vivo, mouse; details: skin of naïve SKH-1 mice
VDAC1/HK1 complex = molecular target: T1, VDAC1/HK1 complex (Homo sapiens, UniProt P19367); experiment: Microscale Thermophoresis (MST) dissociation of VDAC1/HK1 complex; type: binding; details: cell-free MST
T1 construct: host or cells: E. coli (HK1); sheep liver mitochondria (VDAC1)
T1 sequence (P19367 whole entry, one chain of several): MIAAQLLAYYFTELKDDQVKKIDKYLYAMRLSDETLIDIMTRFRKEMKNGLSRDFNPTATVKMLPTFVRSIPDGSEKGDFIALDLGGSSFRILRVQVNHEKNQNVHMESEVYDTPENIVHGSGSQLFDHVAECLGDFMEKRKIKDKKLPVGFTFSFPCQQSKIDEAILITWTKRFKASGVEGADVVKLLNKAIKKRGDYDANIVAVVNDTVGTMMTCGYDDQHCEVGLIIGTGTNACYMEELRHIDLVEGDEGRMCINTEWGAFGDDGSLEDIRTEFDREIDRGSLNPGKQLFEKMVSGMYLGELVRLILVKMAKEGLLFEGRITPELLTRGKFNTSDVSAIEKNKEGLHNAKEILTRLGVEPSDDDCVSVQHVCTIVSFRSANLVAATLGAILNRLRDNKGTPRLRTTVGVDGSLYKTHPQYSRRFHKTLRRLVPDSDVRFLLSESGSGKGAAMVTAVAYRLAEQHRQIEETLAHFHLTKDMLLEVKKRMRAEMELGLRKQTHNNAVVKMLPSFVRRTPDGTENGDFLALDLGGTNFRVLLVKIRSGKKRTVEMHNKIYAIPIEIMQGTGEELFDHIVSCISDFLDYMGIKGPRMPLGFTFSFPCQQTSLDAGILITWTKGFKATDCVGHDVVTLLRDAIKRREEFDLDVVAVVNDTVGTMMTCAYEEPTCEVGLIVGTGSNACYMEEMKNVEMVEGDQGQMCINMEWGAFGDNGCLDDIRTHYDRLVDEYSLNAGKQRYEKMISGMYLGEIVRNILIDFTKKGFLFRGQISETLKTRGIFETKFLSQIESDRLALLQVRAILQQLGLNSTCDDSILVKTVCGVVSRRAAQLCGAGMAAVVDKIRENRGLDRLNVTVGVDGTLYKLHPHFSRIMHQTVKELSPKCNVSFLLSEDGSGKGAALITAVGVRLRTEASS
Procedure: (§2) A431 (human skin SCC), HT-297.T (human AK), and HaCaT transformed normal keratinocyte cell lines were from ATCC (Manassas, VA) and were maintained in DMEM supplemented with 10% FCS, 4 mM L-Gln, 1 mM sodium pyruvate, 100 U/mL penicillin, 1 μg/mL streptomycin. Human HK1 and HK2 plasmids were purchased from Addgene (Cambridge, MA) and were purified from E. Coli. VDAC1 was purified from sheep liver mitochondria as described (Arbel et al. 2012, incorporated herein by reference). Human skin tissue microarray (SK208 and SK 805) were purchased from US Biomax Inc. (Rockville, MD).
Studies were conducted on Nanotemper Monolith NT.115 (Munich, Germany). HK1 and HK2 were labeled using Monolith™ NT.115 Protein Labeling Kit BLUE-NHS. As a preliminary study to form the VDAC1-HK complexes, various concentrations of VDAC1 were added to 67 nM HK1 or 71 nM HK2. The preferred VDAC1 concentration was determined to be 1.5 μM. For dissociation studies, HKs were pre-incubated with VDAC1 for 10 minutes and various concentrations of Formula C were added for an additional 10 minutes. MST default parameters were used and analysis was with Nanotemper analysis software. […]
The activity of Formula C in a cell-free assay was evaluated using Microscale Thermophoresis (MST) analysis, which is based on altered movement of a protein in a temperature gradient when bound to other molecules. […]

HK1 = molecular target: T2, HK1 (Homo sapiens, UniProt P19367); experiment: HK catalytic activity coupled enzymatic assay, HK1; type: biochemical; set-up: dose or concentration left out as unconfirmed; details: as a function of ATP or glucose; absence or presence of Formula C
T2 construct: host or cells: E. coli
T2 sequence (P19367 whole entry): as the sequence (P19367 whole entry, one chain of several) above
Procedure: as §2
Hexokinase catalytic activity was determined by the coupled enzymatic assay in which hexokinase catalyzes the conversion of glucose to G6P, which is then oxidized by glucose-6-phosphate dehydrogenase (G6PDH) in the presence of NADP to form 6-Phospho-D-Gluconate and NADPH. NADPH production results in a colorimetric signal at 340 nm, which is proportional to the hexokinase catalytic activity. The readings were recorded in an ELISA plate reader Infinite 200 ELISA reader (Tecan, Männedorf, Switzerland).

CC/C=C\CC1C(=O)CCC1CC(=O)Oc1cccc2cccnc12 (centres unmarked) [Formula C]
IC50 (Breast MAXF 857): 1560 nM
IC50 [1]: 1380 nM
IC50 (Lung (SCLC) LXFS 573): 1940 nM
IC50 (Skin SCC VXF A-431): 364 nM
IC50 [2]: 1380 nM
IC50 [3]: 965 nM
IC50 [4]: 206 nM
IC50 (Colon CXF HCT 116): 4330 nM
skin irritation [5]: did not cause any irritation
effect on the VDAC1/HK1 complex (VDAC1/HK1 complex): no effect
HK1 catalytic activity (HK1): does not affect; also recorded: did not affect the catalytic activity
